Measured values from paper PMC4165196, “Curcumin, a Natural Antioxidant, Acts as a Noncompetitive Inhibitor of Human RNase L in Presence of Its Cofactor 2-5A In Vitro” (BioMed Research International, 2014).

Target: T1, human RNase L (Homo sapiens, UniProt Q05823)
T1 construct: gene RNASEL; full-length (741 a.a.) recombinant human RNase L, GST-RNase L fusion protein
T1 sequence (Q05823 1-741): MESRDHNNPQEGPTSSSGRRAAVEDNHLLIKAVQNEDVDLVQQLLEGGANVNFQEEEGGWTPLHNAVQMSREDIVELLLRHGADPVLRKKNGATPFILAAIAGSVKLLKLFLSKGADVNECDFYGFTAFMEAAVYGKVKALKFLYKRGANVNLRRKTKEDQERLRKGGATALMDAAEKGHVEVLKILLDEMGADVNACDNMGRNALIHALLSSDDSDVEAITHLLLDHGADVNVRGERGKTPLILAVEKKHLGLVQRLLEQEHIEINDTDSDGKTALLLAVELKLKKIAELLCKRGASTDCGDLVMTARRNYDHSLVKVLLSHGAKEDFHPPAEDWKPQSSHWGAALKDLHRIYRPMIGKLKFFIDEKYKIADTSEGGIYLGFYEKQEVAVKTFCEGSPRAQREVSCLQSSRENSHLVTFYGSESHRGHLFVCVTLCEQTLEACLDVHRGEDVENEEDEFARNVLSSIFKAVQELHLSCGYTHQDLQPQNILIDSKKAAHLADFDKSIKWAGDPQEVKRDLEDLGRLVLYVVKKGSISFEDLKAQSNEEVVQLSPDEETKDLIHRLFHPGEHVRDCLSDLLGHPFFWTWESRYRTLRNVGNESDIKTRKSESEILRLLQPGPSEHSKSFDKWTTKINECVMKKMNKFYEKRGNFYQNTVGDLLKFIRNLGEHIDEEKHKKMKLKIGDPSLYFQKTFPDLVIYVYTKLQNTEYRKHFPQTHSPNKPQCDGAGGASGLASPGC
Assay: intrinsic fluorescence quenching titration (Hill fit); also noncompetitive inhibition of purified GST-RNase L RNA degradation with […]-5A, Ki […], biphasic dose response
Format: binding

`COc1cc(/C=C/C(=O)CC(=O)/C=C/c2ccc(O)c(OC)c2)ccc1O` [curcumin, 1,7-bis-[4 hydroxy-3-methoxy]-1,6 heptadiene-3,5-dione] was tested, and the Kd was 0.397 ± 0.018 µM.
